# Measured values reported in paper PMC6843736 (Molecular Pain, 2019).
# “And” between values parts separate entries of the source, which are not always exact repeats. Equal values may be shown once. Where a name gives a salt, the structure may show the parent alone.
# Key:
# [1] = tested on: rats with trigeminal chronic constriction injury (CCI); assay: Whisker pad mechanical allodynia; format: in vivo, rat; settings: for attenuation of mechanical allodynia: doses as high as 1000 mg/kg; for dose dependence of mechanical threshold at peak time: 2 h after treatment (gabapentin 1 h); for dose dependence of mechanical threshold at peak time / minimal dose required to restore mechanical threshold to baseline: i.p. or p.o.; for mechanical threshold 1 h after injection: ELB00824 3 mg/kg i.p. and/or gabapentin 0.3 mg/kg i.p., one-time dose; for peak time of mechanical threshold: i.p. or p.o. treatment; for effective dose decreasing neuropathic hypersensitivity: rodent trigeminal nerve injury models, pioglitazone i.p.
# [2] = Pharmacokinetic/toxicokinetic study and BBB permeability in rats; format: in vivo, rat
# hERG potassium channel = hERG potassium channel (Homo sapiens, UniProt Q12809); assay: In vitro cardiovascular toxicity study; format: biochemical
# human PPARɣ receptor = biological target: T1, human PPARɣ receptor (Homo sapiens, UniProt P37231); assay: PPARɣ transactivation luciferase reporter assay in HEK 293 T cells; format: cell-based
# T1 sequence (P37231 1-505): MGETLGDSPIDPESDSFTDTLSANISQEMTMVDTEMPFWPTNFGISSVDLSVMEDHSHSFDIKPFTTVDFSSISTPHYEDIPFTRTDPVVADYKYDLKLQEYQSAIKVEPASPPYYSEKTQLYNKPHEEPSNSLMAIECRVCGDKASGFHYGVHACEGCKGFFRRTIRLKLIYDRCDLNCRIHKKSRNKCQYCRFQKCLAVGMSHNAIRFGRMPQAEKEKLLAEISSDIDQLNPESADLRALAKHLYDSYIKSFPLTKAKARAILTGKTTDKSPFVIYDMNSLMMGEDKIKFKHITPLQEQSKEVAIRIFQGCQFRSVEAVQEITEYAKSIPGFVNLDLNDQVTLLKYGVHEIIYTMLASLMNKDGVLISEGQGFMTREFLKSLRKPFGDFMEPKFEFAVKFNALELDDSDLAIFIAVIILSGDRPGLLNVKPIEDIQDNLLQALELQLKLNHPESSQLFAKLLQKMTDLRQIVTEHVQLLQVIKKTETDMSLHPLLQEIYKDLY
# mice with TIC injury [3] = assay: Zero maze anxiety test in mouse chronic TIC model; format: in vivo; settings: six weeks, 2 h post treatment; for time spent in the closed area of the maze: ELB00824 10 mg/kg, carbamazepine 30 mg/kg
# mice with TIC injury [4] = assay: Whisker pad mechanical allodynia; format: in vivo, mouse; settings: for allodynia compared to vehicle, ipsilateral side, week 6 / whisker pad mechanical threshold at 2 h post injection, week 3: ELB00824 10 mg/kg i.p., carbamazepine 30 mg/kg i.p.; for time of peak effect: week 3, one-time i.p. dose
# [5] = tested on: mouse bone marrow erythroblast; assay: Genotoxicity study, micronucleus test; format: in vivo; settings: up to highest concentration 500 mg/kg, intraperitoneal
# mice with TIC injury [6] = assay: Light/dark place preference anxiety test in mouse chronic TIC model; format: in vivo; settings: six weeks; for latency to enter into the lighted chamber: two hours after injection
# rats = assay: Observation of neurobehavioral adverse effects after single treatment in rats; format: in vivo, rat
# Sprague-Dawley rats = assay: Preliminary 14-day repeat dose toxicity study in rats; format: in vivo, rat
# rat = settings: i.p.; cited from earlier work
# [7] = male, Sprague-Dawley, rat, plasma, ip, 10 mg/kg
# [8] = rat brain, 10 mg/kg i.p., 10 mg/kg
# [9] = Sprague-Dawley, rat, plasma, po, 10 mg/kg
# [10] = from AUC in μM·h, rat, 10 mg/kg i.p.
# [11] = from AUC in μM·h, rat, 10 mg/kg i.p., 10 mg/kg
# [12] = from AUC in μg·h/mL, rat, 10 mg/kg i.p.
# [13] = from Cmax in μM, rat, 10 mg/kg i.p.
# [14] = from Cmax in μM, rat, 10 mg/kg i.p., 10 mg/kg
# [15] = from Cmax in μg/mL, rat, 10 mg/kg i.p.
# hERG potassium channel, sequence (Q12809 whole entry): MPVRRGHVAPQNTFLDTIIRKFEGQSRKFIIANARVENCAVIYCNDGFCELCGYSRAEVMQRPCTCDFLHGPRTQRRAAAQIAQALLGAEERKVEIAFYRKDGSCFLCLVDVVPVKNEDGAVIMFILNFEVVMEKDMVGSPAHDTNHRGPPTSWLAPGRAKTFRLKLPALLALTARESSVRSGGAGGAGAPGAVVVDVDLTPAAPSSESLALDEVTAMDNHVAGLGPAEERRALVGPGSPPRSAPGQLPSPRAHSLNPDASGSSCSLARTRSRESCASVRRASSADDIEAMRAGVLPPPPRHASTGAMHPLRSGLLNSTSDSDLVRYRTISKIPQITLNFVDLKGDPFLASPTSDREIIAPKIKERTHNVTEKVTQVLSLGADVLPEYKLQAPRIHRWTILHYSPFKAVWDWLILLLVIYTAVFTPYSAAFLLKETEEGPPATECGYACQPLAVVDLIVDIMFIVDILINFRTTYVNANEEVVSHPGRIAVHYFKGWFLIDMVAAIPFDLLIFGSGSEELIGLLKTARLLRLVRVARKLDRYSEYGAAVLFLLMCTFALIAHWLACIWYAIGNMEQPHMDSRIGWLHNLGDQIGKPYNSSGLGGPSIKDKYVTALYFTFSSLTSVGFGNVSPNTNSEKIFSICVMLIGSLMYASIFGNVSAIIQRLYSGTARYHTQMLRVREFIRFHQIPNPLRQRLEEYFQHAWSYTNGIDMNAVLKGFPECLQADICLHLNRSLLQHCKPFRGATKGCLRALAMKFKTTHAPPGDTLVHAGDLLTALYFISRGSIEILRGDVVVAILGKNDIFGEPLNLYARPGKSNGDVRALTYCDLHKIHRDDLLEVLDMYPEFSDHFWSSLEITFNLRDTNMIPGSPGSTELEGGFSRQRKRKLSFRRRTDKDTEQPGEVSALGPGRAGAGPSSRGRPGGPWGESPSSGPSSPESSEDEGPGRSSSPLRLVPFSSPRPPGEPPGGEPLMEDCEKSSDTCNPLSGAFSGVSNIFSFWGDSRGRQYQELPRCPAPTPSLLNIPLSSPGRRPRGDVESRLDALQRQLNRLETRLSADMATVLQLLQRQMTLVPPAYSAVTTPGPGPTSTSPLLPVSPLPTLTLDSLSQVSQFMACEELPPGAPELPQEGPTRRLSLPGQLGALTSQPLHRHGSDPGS
smiles,measurement,setting,value
"CC(=O)Nc1ccc(O)cc1 [acetaminophen, reference compound]",attenuation of mechanical allodynia,[1],neither acetaminophen nor ibuprofen attenuated mechanical allodynia
"CN(CCOc1ccc(CC2SC(=O)NC2=O)cc1)c1ccccn1 (stereo not shown) [Rosiglitazone, rosiglitazone, reference compound]",attenuation of mechanical allodynia,[1],did not attenuate mechanical allodynia
same,AUC(0-t),[2]; [7],22800 ng·h/mL and 63.7 µM·h
same,Cmax,[2]; [7],4500 ng/mL and 12.6 µM
same,Brain Cmax,[2]; [8],0.50 ± 0.06 μg/mL and 1.41 ± 0.27 μM
"CCc1ccc(CC/C=C/c2ccc3c(c2)C(=O)CC3)cc1 [ELB00824, (E)-6–(4-(4-ethylphenyl)but-1-en-1-yl)-2,3-dihydro-1H-inden-1-one]",IC50,hERG potassium channel,> 30 µM
same,mechanical threshold at 1.5 h,"[1]; 2.5 mg topical (7% cream, 50 mg/cm^2)",8.9 ± 1.5 g
same,mechanical threshold at 1.5 h,"[1]; 5 mg topical (7% cream, 100 mg/cm^2)",19.7 ± 3.1 g
same,mechanical threshold at 3 h after treatment,[1]; 10 mg/kg i.p.,3.5 ± 0.9 g
same,ipsilateral whisker pad mechanical threshold,"[1]; 10 mg/kg i.p., 1 h, 5-14 days post-CCI",11.4 ± 2.2 g
same,ipsilateral whisker pad mechanical threshold (peak),"[1]; 10 mg/kg i.p., 2 h, ELB00824 only",14.9 ± 2.5 g
same,mechanical threshold at 3 h after treatment,[1]; 10 mg/kg p.o.,2.8 ± 0.5 g
same,dose dependence of mechanical threshold at peak time,[1],dose-dependently increased the mechanical threshold
same,mechanical threshold 1 h after injection,[1],2.5 ± 0.3 g
same,onset of symptom relief,[1]; higher dose topical,0.5 h
same,minimal dose required to restore mechanical threshold to baseline,[1],10 mg/kg
same,peak time of mechanical threshold,[1],2 h
same,effective dose decreasing neuropathic hypersensitivity,[1],10 mg/kg
same,onset of symptom relief,"[1]; systematic treatment, either i.p. or p.o., 10 mg/kg",1 h
same,mechanical threshold at 3 h after treatment,[1]; topical treatment,8.9 ± 1.1 g
same,Tmax,"[2]; Sprague-Dawley, rat, brain, po, 10 mg/kg",3 h
same,AUC(0-t),[2]; [9],3030 ng·h/mL
same,Cmax,[2]; [9],350 ng/mL
same,Tmax,[2]; [9],1 h
same,Plasma AUC0–24h ratio ELB00824/Pioglitazone,[2]; [10],0.3
same,Plasma AUC0–24h ratio ELB00824/Rosiglitazone,[2]; [10],0.4
same,Brain AUC0–24h ratio ELB00824/Pioglitazone,[2]; [11],15
same,Brain AUC0–24h ratio ELB00824/Rosiglitazone,[2]; [11],21
same,Brain AUC0–24h ratio ELB00824/Pioglitazone,[2]; [12],11
same,Brain AUC0–24h ratio ELB00824/Rosiglitazone,[2]; [12],17
same,Plasma AUC0–24h ratio ELB00824/Pioglitazone,[2]; [12],0.2
same,Plasma AUC0–24h ratio ELB00824/Rosiglitazone,[2]; [12],0.3
same,Plasma Cmax ratio ELB00824/Pioglitazone,[2]; [13],0.2
same,Plasma Cmax ratio ELB00824/Rosiglitazone,[2]; [13],0.3
same,Brain Cmax ratio ELB00824/Pioglitazone,[2]; [14],5.4
same,Brain Cmax ratio ELB00824/Rosiglitazone,[2]; [14],6.7
same,Brain Cmax ratio ELB00824/Pioglitazone,[2]; [15],4.0
same,Brain Cmax ratio ELB00824/Rosiglitazone,[2]; [15],5.5
same,Plasma Cmax ratio ELB00824/Pioglitazone,[2]; [15],0.1
same,Plasma Cmax ratio ELB00824/Rosiglitazone,[2]; [15],0.2
same,concentration at 1 h,"[2]; male, Sprague-Dawley, rat, brain, po, 10 mg/kg",1160 ng/mL and 4.01 µM
same,concentration at 1 h,"[2]; male, Sprague-Dawley, rat, brain, po, 30 mg/kg",4110 ng/mL and 14.2 µM
same,concentration at 1 h,"[2]; male, Sprague-Dawley, rat, brain, po, 120 mg/kg",7570 ng/mL and 26.1 µM
same,concentration at 1 h,"[2]; male, Sprague-Dawley, rat, brain, po, 450 mg/kg",11000 ng/mL and 38 µM
same,Kp,"[2]; male, Sprague-Dawley, rat, brain/plasma, ip, 10 mg/kg",5.13
same,AUC(0-t),[2]; [7],6550 ng·h/mL and 22.6 µM·h
same,Cmax,[2]; [7],1120 ng/mL and 3.85 µM
same,Tmax,[2]; [7],0.5 h
same,concentration at 1 h,"[2]; male, Sprague-Dawley, rat, plasma, po, 10 mg/kg",270 ng/mL and 940 nM
same,concentration at 1 h,"[2]; male, Sprague-Dawley, rat, plasma, po, 30 mg/kg",820 ng/mL and 2.81 µM
same,concentration at 1 h,"[2]; male, Sprague-Dawley, rat, plasma, po, 120 mg/kg",1510 ng/mL and 5.2 µM
same,concentration at 1 h,"[2]; male, Sprague-Dawley, rat, plasma, po, 450 mg/kg",2200 ng/mL and 7.57 µM
same,Brain AUC0–24h,"[2]; rat brain, 10 mg/kg p.o.",10370 ng·h/mL
same,Brain Cmax,"[2]; rat brain, 10 mg/kg p.o.",1.82 µg/mL
same,plasma Cmax and AUC0–24h relative to those of pioglitazone or rosiglitazone,"[2]; rat plasma, 10 mg/kg i.p.",less than 0.3 fold
same,relative brain bioavailability (AUC0–24h) of oral versus i.p. injection,"[2]; rat, 10 mg/kg",31%
same,relative plasma bioavailability (AUC0–24h) of oral versus i.p. injection,"[2]; rat, 10 mg/kg",46%
same,"maximal activities (% control), PPARɣ activation",human PPARɣ receptor,45 ± 4%
same,latency to move to the closed area,mice with TIC injury [3],11.6 ± 3.9 s
same,time spent in the closed area of the maze,mice with TIC injury [3],103 ± 21 s
same,"allodynia compared to vehicle, contralateral side, week 6",mice with TIC injury [4]; 10 mg/kg i.p.,significantly improved allodynia
same,"mechanical threshold relative to carbamazepine, week 3",mice with TIC injury [4]; 2 h post injection,4.3 fold
same,"allodynia compared to vehicle, ipsilateral side, week 6",mice with TIC injury [4],significantly improved allodynia
same,"whisker pad mechanical threshold at 2 h post injection, week 3",mice with TIC injury [4],6 ± 0.0 g
same,time of peak effect,mice with TIC injury [4],2 h
same,chromosome damage in mouse bone marrow erythroblast,[5],did not induce a significant increase of chromosome damage
same,occupancy time and number of times that rearing occurred,mice with TIC injury [6]; compared with carbamazepine,less robust anti-anxiety behaviors
same,latency to enter into the lighted chamber,mice with TIC injury [6],10 ± 12 s
same,observable neurobehavioral adverse effects,"rats; doses of up to 1000 mg/kg i.p. or p.o., one week observation",not discernable
same,"hematological, blood coagulation and serum biochemistry parameters (55 parameters) compared with controls","Sprague-Dawley rats; day 15, male and female",No significant changes
same,hemoglobin and hematocrit values vs control,"Sprague-Dawley rats; male 450 mg/kg group, day 15",slightly lower hemoglobin and hematocrit values
"CC(C)Cc1ccc(C(C)C(=O)O)cc1 (stereo not shown) [ibuprofen, reference compound]",attenuation of mechanical allodynia,[1],neither acetaminophen nor ibuprofen attenuated mechanical allodynia
"O=C(Nc1ccccc1)c1cc([N+](=O)[O-])ccc1Cl [GW9662, reference compound]",change of mechanical threshold,"[1]; 10–30 mg/kg i.p. alone, 1 to 4 h after injection",did not change mechanical threshold
"NCC1(CC(=O)O)CCCCC1 [gabapentin, reference compound]",time at which threshold was reduced to previous allodynic levels,[1]; 1 mg/kg single i.p. injection,2 h
same,dose dependence of mechanical threshold at peak time,[1],dose-dependently increased the mechanical threshold
same,mechanical threshold 1 h after injection,[1],4.9 ± 1.2 g
same,peak time of mechanical threshold,[1],1 h
"CCc1ccc(CCOc2ccc(CC3SC(=O)NC3=O)cc2)nc1 (stereo not shown) [Pioglitazone, pioglitazone hydrochloride, reference compound]",dose dependence of mechanical threshold at peak time,[1],dose-dependently increased the mechanical threshold
same,minimal dose required to restore mechanical threshold to baseline,[1],1000 mg/kg
same,peak time of mechanical threshold,[1],2 h
same,effective dose decreasing neuropathic hypersensitivity,[1],1000 mg/kg
same,Tmax,"[2]; male, Sprague-Dawley, rat, brain, ip, 10 mg/kg",1 h
same,AUC(0-t),[2]; [7],34500 ng·h/mL and 87.7 µM·h
same,Cmax,[2]; [7],9770 ng/mL and 24.9 µM
same,Brain Cmax,[2]; [8],0.68 ± 0.14 μg/mL and 1.73 ± 0.22 μM
same,rat LD50,rat,558 to 587 mg/kg
same,toxic signs and symptoms,"rats; 300 mg/kg i.p. or p.o., most rats, beginning one day after treatment",showed toxic signs and symptoms
"NC(=O)N1c2ccccc2C=Cc2ccccc21 [carbamazepine, reference compound]",latency to move to the closed area,mice with TIC injury [3],significantly increased latency
same,zone transitions,mice with TIC injury [3]; vs vehicle,significantly more
same,time spent in the closed area of the maze,mice with TIC injury [3],did not show significant differences
same,"allodynia compared to vehicle, ipsilateral side, week 6",mice with TIC injury [4],significantly improved allodynia
same,"whisker pad mechanical threshold at 2 h post injection, week 3",mice with TIC injury [4],1.4 ± 0.2 g
same,time of peak effect,mice with TIC injury [4],2 h
same,latency to enter into the lighted chamber,mice with TIC injury [6],decreased latency
